Reference: ChEMBL document CHEMBL1122030, “2-Arylpyrazolo[4,3-c]quinolin-3-ones: novel agonist, partial agonist, and antagonist of benzodiazepines” (J Med Chem, 1982)
“And” between values parts separate entries of the source, which are not always exact repeats. Equal values may be shown once.

How the values were obtained:
Rattus norvegicus [1] = assay: Antianxiety effect in cook-davidson behavior test at 3 mg/kg of compound administered perorally in rats expressed as mean percent change; assay type: functional; details: route oral
[2] = target: GABA-A receptor; anion channel; assay: In vitro inhibition of binding to GABA-A central benzodiazepine-receptor of rat brain
Rattus norvegicus [3] = assay: Antianxiety effect was assessed by the cook-davidson behavior test at 3 mg/kg of compound administered perorally.; assay type: functional; details: route oral
Rattus norvegicus [4] = assay: Antianxiety effect in cook-davidson behavior test at 1 mg/kg of compound administered perorally in rats expressed as mean percent change; assay type: functional; details: route oral
Rattus norvegicus [5] = assay: Antianxiety effect in cook-davidson behavior test at 10 mg/kg of compound administered perorally in rats expressed as mean percent change; assay type: functional; details: route oral
Rattus norvegicus [6] = assay: (§1) Effect on anti-convulsive 5.4 mg/kg Diazepam peroral dose in rats given 24 mg/kg iv metrazol, number of rats protected (of 6); assay type: functional
Rattus norvegicus [7] = species: Rattus norvegicus; assay: Antianxiety effect was assessed by the cook-davidson behavior test; assay type: functional
Rattus norvegicus [8] = assay: Antianxiety effect was assessed by the cook-davidson behavior test at 1 mg/kg of compound administered perorally.; assay type: functional; details: route oral
Rattus norvegicus [9] = assay: Anticonvulsant efficacy when administered perorally was determined in rat metrazole anticonvulsant test; Calculated from responses at 1,3 and 10 mg/kg doses; assay type: functional; details: route oral
Rattus norvegicus [10] = assay: Antianxiety effect was assessed by the cook-davidson behavior test at 10 mg/kg of compound administered perorally.; assay type: functional; details: route oral
Rattus norvegicus [11] = assay: Antianxiety effect was assessed by the cook-davidson behavior test at 30 mg/kg of compound administered perorally.; assay type: functional; details: route oral
Rattus norvegicus [12] = assay: Anticonvulsant efficacy when administered perorally was determined in rat metrazole anticonvulsant test; assay type: functional; details: po
Rattus norvegicus [13] = assay: Antianxiety effect in cook-davidson behavior test at 30 mg/kg of compound administered perorally in rats expressed as mean percent change; assay type: functional; details: route oral
[14] = target: T1, GABA-A receptor; anion channel (Rattus norvegicus) (UniProt O09028+P15431+P18506+P18508+P19969+P20236+P23574+P23576+P28471+P28473+P30191+P62813+P63079+P63138+Q91ZM7+Q9ES14)
Description: (§2) In vivo inhibition of binding to GABA-A central benzodiazepine-receptor after po administration in rats

[15] = target: T1, GABA-A receptor; anion channel (Rattus norvegicus); remark: listed apart in the source
Description: In vivo inhibition of binding to GABA-A central benzodiazepine-receptor after ip administration in rats

[16] = target: T1, GABA-A receptor; anion channel (Rattus norvegicus); remark: listed apart in the source
Description: as §2

Rattus norvegicus [17] = assay: as §1; assay type: functional; remark: listed apart in the source
Rattus norvegicus [18] = assay: as §1; assay type: functional; remark: listed apart in the source
Rattus norvegicus [19] = assay: as §1; assay type: functional; remark: listed apart in the source

SMILES | VI30 (Rattus norvegicus [1]) [%] | IC50 [2] [pM] | FR10 treated (Rattus norvegicus [3]) | VI30 (Rattus norvegicus [4]) [%] | VI30 (Rattus norvegicus [5]) [%] | No. of animals protected (Rattus norvegicus [6]) | FR10 control (Rattus norvegicus [7]) | FR10 treated (Rattus norvegicus [8]) | ED50 (Rattus norvegicus [9]) [mg/kg] | FR10 treated (Rattus norvegicus [10]) | FR10 treated (Rattus norvegicus [11]) | ED50 (Rattus norvegicus [12]) [mg/kg] | VI30 (Rattus norvegicus [13]) [%] | ID50 [14] [mg/kg] | ID50 [15] [mg/kg] | ID50 [16] [mg/kg] | No. of animals protected (Rattus norvegicus [17]) | No. of animals protected (Rattus norvegicus [18]) | No. of animals protected (Rattus norvegicus [19])
COc1ccc(-n2nc3c4ccccc4[nH]cc-3c2=O)cc1 | 7.8 | 100 | 124 | 6.5 | 5.7 | 4 | 61 and 65 and 50 | 98 | 2.81 | 100 |  |  |  |  |  |  |  |  | 
CN1C(=O)CN=C(c2ccccc2)c2cc(Cl)ccc21 [DIAZEPAM] | 6.1 |  | 131 | 5.9 | 3.6 |  | 82 and 85 and 63 and 76 | 97 |  | 206 | 240 | 4 | -23.8 | 5 |  |  |  |  | 
O=C1C2C=Nc3ccccc3C2=NN1c1ccc(Cl)cc1 (stereo not given) [CGS-9896] | 10.2 | 600 | 234 | 0.1 | 18.2 |  | 67 and 112 and 81 and 73 | 217 |  | 230 |  | 0.9 | 7.5 |  | 3.3 |  |  |  | 
O=C1C2C=Nc3ccccc3C2=NN1c1ccccc1 (stereo not given) [CGS-8216] |  | 400 |  | 0.1 |  | 5 |  | 87 |  |  |  |  |  |  |  | 7.06 | 1 | 0 | 0
